ChEMBL document CHEMBL1926636, “Isoxazoles incorporated N-substituted decahydroquinolines: a precursor to the next generation antimicrobial drug” (2012)
≈ marks a conversion by molar mass, not a printed value.

Experiments:
Pseudomonas aeruginosa [1] = assay: Antibacterial activity against Pseudomonas aeruginosa ATCC 9027 at 10 ug/mL after 24 hrs by disc diffusion method; type: functional; conditions: ATCC 9027, 24 h, read-out: IZ
Escherichia coli [2] = assay: Antibacterial activity against Escherichia coli ATCC 35218 at 10 ug/mL after 24 hrs by disc diffusion method; type: functional; conditions: ATCC 35218, 24 h, read-out: IZ
Salmonella typhi [3] = assay: Antibacterial activity against Salmonella typhi ATCC 6539 at 10 ug/mL after 24 hrs by disc diffusion method; type: functional, Salmonella enterica subsp. enterica serovar Typhi; conditions: Salmonella enterica, ATCC 6539, 24 h; read-out: IZ
Staphylococcus aureus [4] = assay: Antibacterial activity against Staphylococcus aureus ATCC 6538 at 10 ug/mL after 24 hrs by disc diffusion method; type: functional; conditions: ATCC 6538, 24 h, read-out: IZ
Bacillus subtilis [5] = assay: Antibacterial activity against Bacillus subtilis ATCC 6631 at 10 ug/mL after 24 hrs by disc diffusion method; type: functional; conditions: ATCC 6631, 24 h, read-out: IZ
[6] = test system: Lysinibacillus sphaericus; assay: Antibacterial activity against Bacillus sphaericus ATCC 7031 at 10 ug/mL after 24 hrs by disc diffusion method; type: functional; conditions: ATCC 7031, 24 h, read-out: IZ
Pseudomonas aeruginosa [7] = assay: Antibacterial activity against Pseudomonas aeruginosa ATCC 9027 by twofold serial dilution technique; type: functional
Escherichia coli [8] = assay: Antibacterial activity against Escherichia coli ATCC 35218 by twofold serial dilution technique; type: functional
Salmonella typhi [9] = assay: Antibacterial activity against Salmonella typhi ATCC 6539 by twofold serial dilution technique; type: functional, Salmonella enterica subsp. enterica serovar Typhi; conditions: Salmonella enterica
Staphylococcus aureus [10] = assay: Antibacterial activity against Staphylococcus aureus ATCC 6538 by twofold serial dilution technique; type: functional
Bacillus subtilis [11] = assay: Antibacterial activity against Bacillus subtilis ATCC 6631 by twofold serial dilution technique; type: functional
[12] = test system: Lysinibacillus sphaericus; assay: Antibacterial activity against Bacillus sphaericus ATCC 7031 by twofold serial dilution technique; type: functional
Candida albicans [13] = assay: Antifungal activity against Candida albicans ATCC 90028 at 10 ug/mL after 72 hrs by agar cup plate method; type: functional; conditions: ATCC 90028, 72 h, read-out: IZ
Candida albicans [14] = assay: Antifungal activity against Candida albicans PYCC 3436 at 10 ug/mL after 72 hrs by agar cup plate method; type: functional; conditions: PYCC 3436, 72 h, read-out: IZ
Aspergillus niger [15] = assay: Antifungal activity against Aspergillus niger ATCC 16404 at 10 ug/mL after 72 hrs by agar cup plate method; type: functional; conditions: ATCC 16404, 72 h, read-out: IZ
Aspergillus fumigatus [16] = assay: Antifungal activity against Aspergillus fumigatus ATCC 28212 at 10 ug/mL after 72 hrs by agar cup plate method; type: functional; conditions: ATCC 28212, 72 h, read-out: IZ
Candida albicans [17] = assay: Antifungal activity against Candida albicans ATCC 90028 by twofold serial dilution technique; type: functional
Candida albicans [18] = assay: Antifungal activity against Candida albicans PYCC 3436 by twofold serial dilution technique; type: functional
Aspergillus niger [19] = assay: Antifungal activity against Aspergillus niger ATCC 16404 by twofold serial dilution technique; type: functional
Aspergillus fumigatus [20] = assay: Antifungal activity against Aspergillus fumigatus ATCC 28212 by twofold serial dilution technique; type: functional

SMILES | zone of inhibition at 10 µg/mL (Pseudomonas aeruginosa [1]) [mm] | zone of inhibition at 10 µg/mL (Escherichia coli [2]) [mm] | zone of inhibition at 10 µg/mL (Salmonella typhi [3]) [mm] | zone of inhibition at 10 µg/mL (Staphylococcus aureus [4]) [mm] | zone of inhibition at 10 µg/mL (Bacillus subtilis [5]) [mm] | zone of inhibition at 10 µg/mL [6] [mm] | MIC99 (Pseudomonas aeruginosa [7]) [µg/mL] | MIC99 (Escherichia coli [8]) [µg/mL] | MIC99 (Salmonella typhi [9]) [µg/mL] | MIC99 (Staphylococcus aureus [10]) [µg/mL] | MIC99 (Bacillus subtilis [11]) [µg/mL] | MIC99 [12] [µg/mL] | zone of inhibition at 10 µg/mL (Candida albicans [13]) [mm] | zone of inhibition at 10 µg/mL (Candida albicans [14]) [mm] | zone of inhibition at 10 µg/mL (Aspergillus niger [15]) [mm] | zone of inhibition at 10 µg/mL (Aspergillus fumigatus [16]) [mm] | MIC99 (Candida albicans [17]) [µg/mL] | MIC99 (Candida albicans [18]) [µg/mL] | MIC99 (Aspergillus niger [19]) [µg/mL] | MIC99 (Aspergillus fumigatus [20]) [µg/mL]
c1ccc(CN2C(c3ccccc3)C3=C(NOC3c3c[nH]c4ccccc34)C3CCCCC32)cc1 (stereo not given) | 5 | 7 | 7 | 11 | 3 | 6 | 25 (≈ 54.2 µM) | 25 (≈ 54.2 µM) | > 100 | 50 (≈ 108 µM) | > 100 | 100 (≈ 217 µM) | 13 | 11 | 9 | 5 | 100 (≈ 217 µM) | 50 (≈ 108 µM) | > 100 | 25 (≈ 54.2 µM)
c1ccc(CN2C(c3ccccc3)C3=C(NOC3c3ccccn3)C3CCCCC32)cc1 (stereo not given) | 7 | 7 | 11 | 12 | 6 | 16 | 12.5 (≈ 29.5 µM) | 25 (≈ 59 µM) | 50 (≈ 118 µM) | 50 (≈ 118 µM) | 50 (≈ 118 µM) | 25 (≈ 59 µM) | 18 | 18 | 10 | 7 | 50 (≈ 118 µM) | 12.5 (≈ 29.5 µM) | 100 (≈ 236 µM) | 12.5 (≈ 29.5 µM)
O=C(O)c1cn(C2CC2)c2cc(N3CCNCC3)c(F)cc2c1=O [CIPROFLOXACIN] | 8 | 9 | 39 | 17 | 9 | 24 | 12.5 (≈ 37.7 µM) | 18 (≈ 54.3 µM) | 50 (≈ 151 µM) | 25 (≈ 75.4 µM) | 25 (≈ 75.4 µM) | 20 (≈ 60.4 µM) | – | – | – | – | – | – | – | –
c1ccc(CN2C(c3ccccc3)C3=C(NOC3c3cccnc3)C3CCCCC32)cc1 (stereo not given) | 4 | 4 | 11 | 11 | 3 | 13 | 50 (≈ 118 µM) | 100 (≈ 236 µM) | 100 (≈ 236 µM) | 50 (≈ 118 µM) | 100 (≈ 236 µM) | 50 (≈ 118 µM) | 17 | 17 | 8 | 6 | 50 (≈ 118 µM) | 12.5 (≈ 29.5 µM) | > 100 | 12.5 (≈ 29.5 µM)
O=[N+]([O-])c1cccc(C2ONC3=C2C(c2ccccc2)N(Cc2ccccc2)C2CCCCC32)c1 (stereo not given) | 5 | 5 | 8 | 8 | 6 | 9 | 25 (≈ 53.5 µM) | 50 (≈ 107 µM) | > 100 | 100 (≈ 214 µM) | 50 (≈ 107 µM) | 100 (≈ 214 µM) | 24 | 16 | 21 | 5 | 25 (≈ 53.5 µM) | 25 (≈ 53.5 µM) | 100 (≈ 214 µM) | 12.5 (≈ 26.7 µM)
COc1ccc(C2ONC3=C2C(c2ccccc2)N(Cc2ccccc2)C2CCCCC32)cc1OC (stereo not given) | 4 | 6 | 12 | 9 | 7 | 9 | 25 (≈ 51.8 µM) | 50 (≈ 104 µM) | 100 (≈ 207 µM) | 100 (≈ 207 µM) | 50 (≈ 104 µM) | 100 (≈ 207 µM) | 15 | 9 | 14 | 6 | 50 (≈ 104 µM) | 50 (≈ 104 µM) | 100 (≈ 207 µM) | 12.5 (≈ 25.9 µM)
Clc1ccc(C2ONC3=C2C(c2ccccc2)N(Cc2ccccc2)C2CCCCC32)cc1 (stereo not given) | 5 | 4 | 9 | 14 | 6 | 16 | 25 (≈ 54.7 µM) | 50 (≈ 109 µM) | > 100 | 50 (≈ 109 µM) | 50 (≈ 109 µM) | 25 (≈ 54.7 µM) | 21 | 18 | 16 | 4 | 25 (≈ 54.7 µM) | 12.5 (≈ 27.4 µM) | 100 (≈ 219 µM) | 50 (≈ 109 µM)
c1ccc(CN2C(c3ccccc3)C3=C(NOC3c3ccc4c(c3)OCO4)C3CCCCC32)cc1 (stereo not given) | 5 | 4 | 7 | 8 | 5 | 11 | 25 (≈ 53.6 µM) | 50 (≈ 107 µM) | > 100 | 100 (≈ 214 µM) | 100 (≈ 214 µM) | 50 (≈ 107 µM) | 16 | 6 | 11 | 4 | 50 (≈ 107 µM) | 100 (≈ 214 µM) | 100 (≈ 214 µM) | 50 (≈ 107 µM)
c1ccc(CN2C(c3ccccc3)C3=C(NOC3c3ccco3)C3CCCCC32)cc1 (stereo not given) | 4 | 3 | 2 | 5 | 5 | 12 | 50 (≈ 121 µM) | 100 (≈ 242 µM) | > 100 | 100 (≈ 242 µM) | 50 (≈ 121 µM) | 50 (≈ 121 µM) | 12 | 4 | 4 | 4 | 100 (≈ 242 µM) | 100 (≈ 242 µM) | > 100 | 50 (≈ 121 µM)
c1ccc(CN2C(c3ccccc3)C3=C(NOC3c3ccccc3)C3CCCCC32)cc1 (stereo not given) | 3 | 4 | 3 | 10 | 4 | 11 | 100 (≈ 237 µM) | 100 (≈ 237 µM) | > 100 | 100 (≈ 237 µM) | 100 (≈ 237 µM) | 100 (≈ 237 µM) | 7 | 10 | 4 | 2 | > 100 | 50 (≈ 118 µM) | > 100 | 100 (≈ 237 µM)
O=[N+]([O-])c1ccc(C2ONC3=C2C(c2ccccc2)N(Cc2ccccc2)C2CCCCC32)cc1 (stereo not given) | 6 | 5 | 10 | 11 | 4 | 14 | 12.5 (≈ 26.7 µM) | 50 (≈ 107 µM) | 100 (≈ 214 µM) | 50 (≈ 107 µM) | 100 (≈ 214 µM) | 50 (≈ 107 µM) | 19 | 12 | 13 | 6 | 50 (≈ 107 µM) | 50 (≈ 107 µM) | 100 (≈ 214 µM) | 12.5 (≈ 26.7 µM)
COc1ccc(C2ONC3=C2C(c2ccccc2)N(Cc2ccccc2)C2CCCCC32)cc1 (stereo not given) | 4 | 6 | 11 | 14 | 5 | 7 | 100 (≈ 221 µM) | 25 (≈ 55.2 µM) | 100 (≈ 221 µM) | 50 (≈ 110 µM) | 100 (≈ 221 µM) | 100 (≈ 221 µM) | 14 | 12 | 7 | 3 | 50 (≈ 110 µM) | 50 (≈ 110 µM) | > 100 | 100 (≈ 221 µM)
CC(=O)N1CCN(c2ccc(OCC3COC(Cn4ccnc4)(c4ccc(Cl)cc4Cl)O3)cc2)CC1 (stereo not given) [KETOCONAZOLE] | – | – | – | – | – | – | – | – | – | – | – | – | 22 | 22 | 25 | 10 | 25 (≈ 47 µM) | 7.8 (≈ 14.7 µM) | 50 (≈ 94.1 µM) | 7 (≈ 13.2 µM)
